According to publication PMC7236921, “γ-Secretase modulators exhibit selectivity for modulation of APP cleavage but inverse γ-secretase modulators do not” (Alzheimer's Research & Therapy, 2020):

How the values were obtained:
[1] = target: T1, PS2 γ-secretase (PS2 membrane, PSEN1−/− PSEN2+/+) (Homo sapiens, UniProt P49810); assay: cell-free cleavage of rC100sub, IP-MS of Abeta; format: biochemical; conditions: inverse modulator (iGSM), 100 μM; substrate rC100sub (APP C100); pH 6.5, 37 °C, 2 h
T1 construct: endogenous complex in CHAPSO-solubilized membrane of HEK 293T cells expressing only PS2; with Nicastrin; Gamma-secretase subunit APH-1A; Gamma-secretase subunit PEN-2

[2] = target: T2, PS1 γ-secretase (PS1 membrane, PSEN1+/+ PSEN2−/−) (Homo sapiens, UniProt P49768); assay: cell-free cleavage of rC100sub, IP-MS of Abeta; format: biochemical; conditions: inverse modulator (iGSM), 100 μM; substrate rC100sub (APP C100); pH 6.5, 37 °C, 2 h
T2 construct: endogenous complex in CHAPSO-solubilized membrane of HEK 293T cells expressing only PS1; with Nicastrin; Gamma-secretase subunit APH-1A; Gamma-secretase subunit PEN-2

CC(C)OC(=O)C(C)(C)Oc1ccc(C(=O)c2ccc(Cl)cc2)cc1 [fenofibrate]
percentage change of Aβ38 [1]: iGSMs had an enhanced response when compared to WT | percentage change of Aβ38 [2]: the iGSM treatment resulted in only slight changes in the peptides produced
